Source: patent US20170119742A1, “MEDICAMENT FOR PREVENTING AND/OR TREATING STRESS DISEASES” (ONO PHARMACEUTICAL CO., LTD., priority 2014, published 2017)

How the values were obtained:
[1] = system: fear conditioning stress rats; test: Antianxiety effect (1): freezing time in fear conditioning stress rats; format: in vivo; details: rat, 1 and 3 mg/kg oral, 2 h before 30 min stress load, Dunnett test
Description: Male Crj: CD (SD) rats (Charles River Laboratories Japan, Inc., at the time of evaluation: 8 weeks old) were used to load conditioned fear stress in accordance with Funatsu et al. method (European Journal of Pharmacology, Vol. 573, p. 190-195, 2007). The day before of fear conditioning, the rat was put in an electric shock device which was placed in a soundproof box to acclimate to the evaluation environment. The day of fear conditioning, the rat was put in the electric shock device. The conditioning, 5 seconds electric current load (2.0 mA) and light irradiation (3 pieces of 40 W fluorescent bulbs) followed by 3 seconds warning sound (60 to 70 db), was carried out a total 15 times at 1 minute intervals. The rat of the non-stressed group was given a warning sound and light irradiation without performing the electric current load during fear conditioning. The day after the fear conditioning, the vehicle (0.5 w/v % methylcellulose 400 cP solution) or the compound of the present invention (0.3, 1 or 3 mg/kg) was orally administered to the rat. Two hours after the administration, the rat was put in the electric shock device. […] The behavior of the rat was photographed with a video camera during the 30 minutes of stress load and freezing time was measured.

brain TSPO [2] = target: T1, brain TSPO (Homo sapiens, UniProt P30536); test: Brain occupancy using PET in humans (2), different analytical method, Bmax fixed to 1; format: in vivo; details: [11C] PBR28, Emax model with Bmax fixed to 1, mean plasma concentration, SAS, read-out: Ki, blood concentration which can be achieved 50% Bmax (converted)
T1 construct: from tissue; host or cells: living human brain (PET, healthy adults)
Method: The data in Biological example 8 were analyzed in a different analytical method. Brain occupancy, relative to the binding potential (BP) before administration, was calculated by calculating the BP of each interest area from the brain radioactivity concentration time change of [^11C] PBR28, nonspecific binding amount and arterial blood plasma radioactivity which was corrected in a non-metabolic rate (n=3 to 4 in each group). Further, the average TSPO occupancy of all interest areas was determined from the Lassen plot that obtained by the horizontal axis of the distribution volume before administration (Vt baseline) and the vertical axis of the value obtained by subtracting the distribution volume after administration from the distribution volume before the administration (Vt baseline−Vt onmed) for each interest area. […] As parameters in this model, Bmax (a maximum number of binding) and Ki (ng/mL) (a blood concentration which can be achieved 50% Bmax) were used. Bmax was fixed to 1 in this analysis, and SAS Version 9.2 (SAS Institute) was used as an analysis software. Parameters and formula of Emax model were shown in the following.
TSPO Occupancy (%)=Bmax×Cave/(Ki+Cave)×100
Cave=Mean plasma concentration (ng/mL)

brain TSPO [3] = target: T1, brain TSPO; test: Prediction of brain TSPO occupancy in steady state, once daily in humans (Biological example 9); details: trough concentration
Description: A transition in the plasma concentration of the compound of the present invention, in a steady state when administered once daily, was predicted.

[4] = system: female diarrhea-type IBS patients; test: Efficacy trial in humans 1: double-blind parallel-group study in IBS; format: in vivo, human; details: for Daily responder (%), Abdominal Pain and Stool Consistency: placebo 6.5; for Daily responder (%), Stool Consistency: placebo 10.9; for Weekly responder (%), Abdominal Pain and Stool Consistency: placebo 21.7; for Weekly responder (%), Stool Consistency: placebo 28.3; for Daily responder (%), Abdominal Pain: placebo 37; for Weekly responder (%), Abdominal Pain: placebo 39.1; for increase in the number of days per week with no abdominal pain: 4th week of treatment period, placebo 0.61
Method: As a clinical trail, a double-bind, parallel-group study was conducted under the following conditions in female diarrhea-type IBS patients.
PURPOSE: Confirmation of efficacy against clinical symptoms of IBS METHODS: This study was conducted at 49 centers in the United States and recruited 200 patients (aged 18-65 years) with female diarrhea-type IBS patients according to Rome III criteria (Gastroenterology, Vol. 130, p. 1480-1491, 2006). Patients were randomly assigned to any of the following three treatment groups (1:1:1 ratio) and received orally administration once-daily for 4 weeks. Patients recorded their IBS symptoms on a daily basis in an e-diary during a 2-week pre-treatment, the 4-week treatment period and for 4 weeks post-treatment. Safety monitoring was performed throughout the study. The primary endpoints were change from baseline (pre-treatment period) to week 4 in stool consistency (Bristol Stool Scale; BSS), stool frequency and abdominal pain (Numerical Rating Scale; NRS). Secondary endpoints included FDA responder analyses (Guidance for Industry Irritable Bowel Syndrome—Clinical Evaluation of Drugs for Treatment).
(1) Placebo group (2) The compound of the present invention (20 mg treatment) group (3) The compound of the present invention (60 mg treatment) group ENDPOINTS: IBS symptoms (abdominal pain, stool consistency, stool frequency, faecal urgency and severity), QOL, psychological symptoms, safety, pharmacokinetics and biomarker RESULTS: Baseline value of patient layer and each of the parameters (stool consistency, stool frequency and abdominal pain) were similar in each treatment group. […] Further, a greater percentage of patients met responder criteria among patients in 60 mg treatment group of the compound of the present invention compared to placebo treatment group (Table 3, FIG. 10 and FIG. 11). On the other hand, the increase in the number of days per week with no abdominal pain at the 4th week of treatment period were 0.61 in placebo treatment group, 1.16 in 20 mg treatment group and 1.51 in 60 mg treatment group.
The weekly responder of abdominal pain and stool consistency was defined as a patient who met the both criteria of the above-mentioned abdominal pain score and stool consistency.

[5] = 20 mg oral once daily 4 weeks, n = 41
[6] = 60 mg oral once daily 4 weeks, n = 45

T1 sequence (P30536 whole entry): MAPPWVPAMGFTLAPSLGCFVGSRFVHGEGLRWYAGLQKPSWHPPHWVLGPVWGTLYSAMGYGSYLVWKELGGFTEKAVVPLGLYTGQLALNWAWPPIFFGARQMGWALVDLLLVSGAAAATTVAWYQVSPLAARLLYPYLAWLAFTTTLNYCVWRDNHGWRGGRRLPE

Ki (brain TSPO [2]): 34.1 nM
TSPO Occupancy (%) Predicted 5 percentile (brain TSPO [3]; dose 5 mg): 42.8%
TSPO Occupancy (%) Predicted 95 percentile (brain TSPO [3]; dose 5 mg): 70.3%
TSPO Occupancy (%) Predicted median (brain TSPO [3]; dose 5 mg): 57.4%
TSPO Occupancy (%) Predicted 5 percentile (brain TSPO [3]; dose 10 mg): 59.8%
TSPO Occupancy (%) Predicted 95 percentile (brain TSPO [3]; dose 10 mg): 82.3%
TSPO Occupancy (%) Predicted median (brain TSPO [3]; dose 10 mg): 73.1%
TSPO Occupancy (%) Predicted 5 percentile (brain TSPO [3]; dose 20 mg): 74.6%
TSPO Occupancy (%) Predicted 95 percentile (brain TSPO [3]; dose 20 mg): 90.5%
TSPO Occupancy (%) Predicted median (brain TSPO [3]; dose 20 mg): 84.4%
TSPO Occupancy (%) Predicted 5 percentile (brain TSPO [3]; dose 30 mg): 81.6%
TSPO Occupancy (%) Predicted 95 percentile (brain TSPO [3]; dose 30 mg): 93.4%
TSPO Occupancy (%) Predicted median (brain TSPO [3]; dose 30 mg): 89.0%
TSPO Occupancy (%) Predicted 5 percentile (brain TSPO [3]; dose 60 mg): 90.0%
TSPO Occupancy (%) Predicted 95 percentile (brain TSPO [3]; dose 60 mg): 96.7%
TSPO Occupancy (%) Predicted median (brain TSPO [3]; dose 60 mg): 94.2%
TSPO Occupancy (%) Predicted 5 percentile (brain TSPO [3]; dose 100 mg): 95.3%
TSPO Occupancy (%) Predicted 95 percentile (brain TSPO [3]; dose 100 mg): 98.4%
TSPO Occupancy (%) Predicted median (brain TSPO [3]; dose 100 mg): 97.4%
Structure (SMILES): COc1cc(Cl)ccc1[C@H]1c2[nH]c3cccc(F)c3c2C2(CC2)CN1C(C)=O [the compound of the present invention, (1S)-2-acetyl-1-(4-chloro-2-methoxyphenyl)-5-fluoro-1,2,3,9-tetrahydrospiro[β-carboline-4,1′-cyclopropane]]
freezing time vs. vehicle control group [1]: shortened this extended freezing time significantly
tolerability and safety profile ([4]; 20 mg or 60 mg oral once daily for 4 weeks): well-tolerated and had a favourable safety profile
Daily responder (%), Abdominal Pain and Stool Consistency [4, 5]: 14.6%
Daily responder (%), Stool Consistency [4, 5]: 17.1%
Weekly responder (%), Abdominal Pain and Stool Consistency [4, 5]: 22%
Weekly responder (%), Stool Consistency [4, 5]: 41.5%
Daily responder (%), Abdominal Pain [4, 5]: 36.6%
Weekly responder (%), Abdominal Pain [4, 5]: 39%
Daily responder (%), Abdominal Pain and Stool Consistency [4, 6]: 20%
Daily responder (%), Stool Consistency [4, 6]: 26.7%
Weekly responder (%), Abdominal Pain and Stool Consistency [4, 6]: 37.8%
Weekly responder (%), Stool Consistency [4, 6]: 48.9%
Daily responder (%), Abdominal Pain [4, 6]: 53.3%
Weekly responder (%), Abdominal Pain [4, 6]: 57.8%
number of days per week with at least one stool having a BSS classification of 6 or 7, vs placebo ([4]; 60 mg treatment group, over the 4-week treatment period (FIG. 8)): Improvements over placebo treatment group
average weekly score of the worst abdominal pain experienced during the past 24 hours, vs placebo ([4]; 60 mg treatment group, over the 4-week treatment period (FIG. 9)): Improvements over placebo treatment group
increase in the number of days per week with no abdominal pain ([4]; 20 mg treatment group): 1.16
increase in the number of days per week with no abdominal pain ([4]; 60 mg treatment group): 1.51
